Our source for the TGI and GI50 values is PubChem BioAssay (NCI).

The structures appear in SMILES notation.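 1) Cells in 96-well plates. 2) Compound, 48 h, 5 concentrations. 3) Linear interpolation between surrounding doses. 4) Unreached endpoint = highest concentration. GI50 marks 50% less growth. TGI: concentration producing complete growth inhibition.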 A value given as a limit tells only on which side of the number the result lay.

What all share (test): NCI-60 cell line screen, 48 h
In experiment [1] the test system is OVCAR-4 ovarian.
Experiment [2] has as its system 786-0 renal.
Experiment [3] relates to SF-268 CNS.
For experiment [4], the system named is NCI-H522 lung.
The test system of experiment [5] is NCI-H460 lung.
Experiment [6] has as its system MOLT-4 leukemia.
Experiment [7] relates to UO-31 renal.
Experiment [8] concerns A549 NSCLC.
Experiment [9] concerns SK-OV-3 ovarian.
For experiment [10], the system named is HOP-62 NSCLC.

For the molecule `CN1C(=O)C(Cl)(C(Cl)(Cl)S(=O)(=O)O)C(=O)c2ccccc21` (stereo not given), the TGI in experiment [1], in experiment [2], in experiment [3], in experiment [4], in experiment [5] and in experiment [6] was more than 100 µM each time. For the same molecule, the TGI in experiment [7], in [8], in [9] and in experiment [10] was more than 100 µM in each case.

Regarding `O=c1[nH]c(=O)n(C2OC3COC2C3O)cc1F` (stereo not given), the TGI in experiment [1], in experiment [2], in experiment [3], in [4], in [5] and in [6] was more than 100 µM in each case. Moreover, the TGI in experiment [7], in [8], in experiment [9] and in experiment [10] was more than 100 µM in each case.

Regarding `Cn1c(=O)c2c(ncn2CN2CCN(Cn3cnc4c3c(=O)n(C)c(=O)n4C)CC2)n(C)c1=O`, the TGI in experiment [1] is more than 100 µM; in [2], more than 100 µM; in experiment [3] it was more than 100 µM; in experiment [4], more than 100 µM; in [5], 57.8 µM; in [6] it was 41.4 µM. For the same molecule, the TGI in experiment [7], in experiment [8], in [9] and in experiment [10] was more than 100 µM in each case.

`COc1ccc(-c2cn[nH]c2-c2cc(OC)c3c(c2)OCCO3)cc1`: the GI50 is 1.03 µM in [1]; 0.369 µM in experiment [2]; 1.03 µM in [3]; 0.0243 µM in [4]; 0.0686 µM in experiment [5]; 0.706 µM in [6]. The GI50 is 0.734 µM in experiment [7], 0.102 µM in [8], 0.4 µM in experiment [9] and 0.264 µM in experiment [10]. For the same molecule, the TGI in experiment [1] was more than 100 µM; in [2], 26.8 µM; in [3], more than 74.2 µM; in experiment [4] it was 0.164 µM; in experiment [5], 11.4 µM; in experiment [6], 34.3 µM. For the same molecule, the TGI in [7] was 42 µM; in experiment [8], 46 µM; in [9], 35.5 µM; in [10], 47.6 µM.

Take `O=C1CCCN1CC#CCN1CCCC1`: the GI50 in [1], in [2], in experiment [3], in experiment [4], in experiment [5] and in experiment [6] was more than 100 µM throughout. Also, the GI50 in [7], in experiment [8], in experiment [9] and in experiment [10] was more than 100 µM in each case. The TGI in [1], in experiment [2], in [3], in [4], in experiment [5] and in [6] was more than 100 µM in each case. The TGI in [7], in experiment [8], in experiment [9] and in experiment [10] was more than 100 µM throughout.

Regarding `COC(=O)CCCCCN=Cc1c(O)c(O)c(C(C)C)c2cc(C)c(-c3c(C)cc4c(C(C)C)c(O)c(O)c(C=NCCCCCC(=O)OC)c4c3O)c(O)c12`, the GI50 in experiment [1] is 1.05 µM; in [2], 1.77 µM; in experiment [3] it was 1.51 µM; in experiment [4] it was 0.968 µM; in experiment [5], 1.28 µM; in experiment [6], 1.05 µM. Moreover, the GI50 in [7] is 1.24 µM; in [8], 1.35 µM; in [9], 1.51 µM; in experiment [10], 1.35 µM. Moreover, the TGI in experiment [1] is more than 32.5 µM; in experiment [2] it was 14.7 µM; in [3], more than 32.5 µM; in [4], 6.52 µM; in experiment [5], 8.42 µM; in [6], 16.5 µM. The TGI in experiment [7] was more than 32.5 µM; in [8] it was more than 32.5 µM; in experiment [9], 20 µM; in experiment [10], 28.1 µM.

With `COc1ccc2c(c1)[n+]([O-])c(/C(C)=N/NC(=O)CC#N)c[n+]2[O-]`, the TGI in experiment [1], in experiment [2], in experiment [3], in experiment [4], in experiment [5] and in experiment [6] was more than 100 µM throughout. Further, the TGI in [7], in experiment [8], in experiment [9] and in experiment [10] was more than 100 µM each time.
